Data reported in patent US20260053777A1, “USE OF NRF2 ACTIVATORS FOR THE TREATMENT OF CEREBRAL SMALL VESSEL DISEASE” (INSTITUT NATIONAL DE LA SANTÉ ET DE LA RECHERCHE MÉDICALE, priority 2022, published 2026).

Columns and labels:
[1] = tested on: Human brain microvascular endothelial cells (HBMEC); test: Cellrox Green detection of oxidative stress in HBMEC treated with control or TRIM47 siRNA and Luperox; format: cell-based; settings: Luperox, pre-treatment with tBHQ
Experimental: Human brain microvascular endothelial cells (HBMEC) were treated with control or TRIM47 siRNA and with/without Luperox (inducer of oxidative stress) and incubated with Cellrox Green dye (detection of oxidative stress).

[2] = tested on: Nrf2 and its target genes; test: qPCR screening of Nrf2 and its target genes on brain endothelial cells isolated from adult mice with/without tBHQ diet; format: in vivo
Trim47 −/− adult mice = test: Water maze behavioural test on adult mice with/without a diet with tBHQ; format: in vivo
Experimental: FIG. 4. TRIM47 is essential to brain physiology by promoting the NRF2 antioxidant protective system. […] B. RNA-sequencing was performed on HBMEC treated with control or TRIM47 siRNA. C. Assessment of blood brain barrier (BBB) permeability was done on Trim47 +/+ and Trim47 −/− adult mice. Mann-Whitney test. D. Representative image by immunofluorescence of GFAP expression (activated astrocytes) in brain sections from Trim47 +/+ and Trim47 −/− adult mice. E. Water maze behavioural test performed on adult mice with/without a diet with tBHQ. Two-way ANOVA with repeated measures. […] Latency to reach platform is shown for the 4 training days (FIG. 4E).

NRF2 = test: Rescue of the effect of TRIM47 knockdown by activation of NRF2 at the protein level (FIG. 3); format: cell-based, human; settings: tBHQ stabilizing NRF2 protein
Description: FIG. 3. […] Methods. TRIM47 interacting effectors were searched by proximity labeling assay (BioID) in human brain EC. TRIM47 knockdown in EC allowed to explore TRIM47 role in functional assays, and to identify transcriptional response by RNA-sequencing.

[3] = Trim47 KO mice, brain EC, +tBHQ diet (1% W/W, 1 month), mean of n = 5
[4] = Trim47 WT mice, brain EC, +tBHQ diet (1% W/W, 1 month), mean of n = 5

## CC(C)(C)c1cc(O)ccc1O [tBHQ, tert-butylhydroquinone]
[1]
  Induction of oxidative stress (Cellrox Green dye): reversed induction of oxidative stress
[2]; [3]
  Relative gene expression fold change (normalized to Pecam1): Cdh5 (BBB integrity): 0.967
  Relative gene expression fold change (normalized to Pecam1): Cldn5 (BBB integrity): 0.877
  Relative gene expression fold change (normalized to Pecam1): Cldn11 (BBB integrity): 1.020
  Relative gene expression fold change (normalized to Pecam1): Gclm (Nrf2 pathway): 1.009
  Relative gene expression fold change (normalized to Pecam1): Hmox1 (Nrf2 pathway): 1.095
  Relative gene expression fold change (normalized to Pecam1): Keap1 (Nrf2 pathway): 0.730
  Relative gene expression fold change (normalized to Pecam1): Me1 (Nrf2 pathway): 1.148
  Relative gene expression fold change (normalized to Pecam1): Nfe2l2 (Nrf2 pathway): 1.040
  Relative gene expression fold change (normalized to Pecam1): Nqo1 (Nrf2 pathway): 1.084
  Relative gene expression fold change (normalized to Pecam1): Ocln (BBB integrity): 0.895
  Relative gene expression fold change (normalized to Pecam1): Slc7a11 (Nrf2 pathway): 1.145
[2]; [4]
  Relative gene expression fold change (normalized to Pecam1): Cdh5 (BBB integrity): 1.013
  Relative gene expression fold change (normalized to Pecam1): Cldn5 (BBB integrity): 1.071
  Relative gene expression fold change (normalized to Pecam1): Cldn11 (BBB integrity): 1.016
  Relative gene expression fold change (normalized to Pecam1): Gclm (Nrf2 pathway): 0.999
  Relative gene expression fold change (normalized to Pecam1): Hmox1 (Nrf2 pathway): 1.033
  Relative gene expression fold change (normalized to Pecam1): Keap1 (Nrf2 pathway): 1.014
  Relative gene expression fold change (normalized to Pecam1): Me1 (Nrf2 pathway): 1.033
  Relative gene expression fold change (normalized to Pecam1): Nfe2l2 (Nrf2 pathway): 1.007
  Relative gene expression fold change (normalized to Pecam1): Nqo1 (Nrf2 pathway): 1.033
  Relative gene expression fold change (normalized to Pecam1): Ocln (BBB integrity): 1.025
  Relative gene expression fold change (normalized to Pecam1): Slc7a11 (Nrf2 pathway): 1.030
  Relative gene expression fold change (normalized to Pecam1): Trim47: 1.066
[2]; Trim47 −/− adult mice, 1-month diet with tBHQ (1% W/W)
  Impairment of the Nrf2 pathway in Trim47 −/− mice (qPCR, brain endothelial cells): prevented
Trim47 −/− adult mice
  Cognitive impairment in water maze (latency to reach platform, 4 training days): prevent cognitive impairment
NRF2
  Effect of TRIM47 knockdown (FIG. 3): partly rescues the effect of TRIM47 knockdown
